Experimental data from US20250346606A1, “CAMPTOTHECIN COMPOUND, PREPARATION METHOD THEREFOR, AND APPLICATION THEREOF” (SICHUAN KELUN-BIOTECH BIOPHARMACEUTICAL CO., LTD., priority 2021, published 2025).

Tests used:
Type in all cases: cell-based, Human
A549 cells = experiment: Inhibitory effect of compounds on A549 cell proliferation; conditions: Homo sapiens, A549, 72 h, read-out: IC50, inhibitory activity on A549 cell proliferation
Protocol: (1) Cell plating: First, tumor cells A549 were cultured in the corresponding medium, then digested with trypsin, centrifuged and resuspended, and counted, and the cells were adjusted to an appropriate concentration for plating.
(§1) Co-incubation of the compound of the present disclosure and tumor cells: after the cells adhered to the wall, the medium was removed, and the diluted bioactive molecule (the compound of the present disclosure) was added to the wells of the above plate, and incubated for 72 h.
(§2) In vitro cell activity detection: After the incubation, 50 μL of Cell Counting-Lite™ 2.0 reagent (Vazyme/Novazyme) was added to each well, shaken and mixed well in the dark, reacted for 10 minutes, and then the detection was carried out with a microplate reader (manufacturer: BMG, Model: PHERAStar-FS) for reading. The background RLU was obtained by using cell-free medium (with Cell Counting-Lite™), and the vehicle RLU was obtained by using cell-containing medium (with Cell Counting-Lite™). Cell inhibition rate=1−(sample RLU−background RLU)/(solvent RLU−background RLU)×100%. According to the four-parameter model fitting curve, the half maximal inhibitory concentration (IC50) of the compound was calculated, and the detection results were shown in Table 4.

NCI-N87 cells = experiment: Inhibitory effect of compounds on NCI-N87 cell proliferation; conditions: Homo sapiens, NCI-N87, 72 h, read-out: IC50, inhibitory activity on NCI-N87 cell proliferation, NCI-N87 human gastric cancer cells, 72 h incubation, Cell Counting-Lite 2.0
Method in brief: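 Adherent NCI-N87 cells were exposed to compound dilutions for 72 h. Viability measured by Cell Counting-Lite 2.0 luminescence, with inhibition calculated against vehicle and cell-free background RLU. IC50 from four-parameter fit.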

NCI-H358 cells = experiment: Inhibitory effect of compounds on NCI-H358 cell proliferation; conditions: Homo sapiens, NCI-H358, 72 h, read-out: IC50, inhibitory activity on NCI-H358 cell proliferation, NCI-H358 human non-small cell lung cancer cells, 72 h incubation, Cell Counting-Lite 2.0
Method in brief: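 Adherent NCI-H358 cells were exposed to compound for 72 h, then viability was read by luminescence (Cell Counting-Lite 2.0). Inhibition calculated from RLU relative to cell-free background and vehicle wells; IC50 from a four-parameter fit.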

SKOV-3 cells = experiment: Inhibitory effect of compounds on SKOV-3 cell proliferation; conditions: Homo sapiens, SK-OV-3, 72 h, read-out: IC50, inhibitory activity on SKOV-3 cell proliferation
Protocol: (1) Cell plating: First, tumor cells SKOV-3 were cultured in corresponding medium, then digested with trypsin, centrifuged, resuspended, and counted, and the cells were adjusted to an appropriate concentration for plating.
as §1
as §2, with “viability” for “activity”, “8.” for “4.”

HT29 cells = experiment: Inhibitory effect of compounds on HT29 cell proliferation; conditions: Homo sapiens, HT-29, 72 h, read-out: IC50, inhibitory activity on HT29 cell proliferation
Method in brief: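 Adherent HT29 cells incubated with diluted compounds for 72 h; viability read by luminescence (Cell Counting-Lite 2.0, 10 min). Inhibition calculated against cell-free background and vehicle-treated cells; IC50 from four-parameter curve fit.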

HCC70 cells = experiment: Inhibitory effect of compounds on HCC70 cell proliferation; conditions: Homo sapiens, HCC70, 72 h, read-out: IC50, inhibitory activity on HCC70 cell proliferation
Protocol: (1) Cell plating: First, tumor cells HCC70 were cultured in corresponding medium, then digested with trypsin, centrifuged, resuspended, and counted, and the cells were adjusted to an appropriate concentration for plating.
as §1
as §2, with “viability” for “activity”, “16.” for “4.”

Hela cells = experiment: Inhibitory effect of compounds on Hela cell proliferation; conditions: Homo sapiens, HeLa, 72 h, read-out: IC50, inhibitory activity on Hela cell proliferation
Protocol: (1) Cell plating: First, tumor cells Hela were cultured in corresponding medium, then digested with trypsin, centrifuged, resuspended, and counted, and the cells were adjusted to an appropriate concentration for plating.
as §1
as §2, with “viability” for “activity”, “14.” for “4.”

In the case of `CC[C@@]1(O)C(=O)OCc2c1cc1n(c2=O)Cc2c-1nc1cc(Cl)c(C)c3c1c2[C@@H](NC(=O)C1(O)CC1)CC3` [Example 7 (2-20-A), N-((1S,9S)-5-chloro-9-ethyl-9-hydroxy-4-methyl-10,13-dioxo-2,3,9,10,13,15-hexahydro-1H,12H-benzo[de]pyrano[3′,4′:6,7]indolizino[1,2-b]quinolin-1-yl)-1-hydroxycyclopropane-1-carboxamide], the IC50 (A549 cells) is reported as 8.14 nM, the IC50 (NCI-N87 cells) is reported as 4.54 nM and the IC50 (NCI-H358 cells) is reported as 18.6 nM. It also gave an IC50 (SKOV-3 cells) of 6.79 nM, an IC50 (HT29 cells) of 1.29 nM and an IC50 (HCC70 cells) of 105 nM. It also gave an IC50 (Hela cells) of 11.2 nM.
